# Test results taken from PubChem BioAssay AID1963441 (Molecular Pharmacology Branch, DTP, NCI, 2024).
# “And” between values parts separate entries of the source, which are not always exact repeats. Identical values can stand only once.
# System: NCI-H1876 complex spheroid growth, % test/control
# Assay: Anticancer human tumor NCI-H1876 cell line growth inhibition [Asc];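 note: compound exposure lasted 7 days starting three days after seeding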;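 for viability, T/C: 100% = DMSO vehicle control wells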
# Details: for viability, T/C: stronger effect = lower value
# Method in brief: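 Stromal components (HUVEC and hMSC) are co-assembled with the cancer cells into multicellular spheroids. Drugs are then added singly or paired, at concentrations falling by half-log increments from a clinically achievable maximum, capped at 10 microM without known Cmax.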
# [1] = curve of first compound, second compound 0.0316 µM
# [2] = curve of first compound, second compound 0.1 µM
# [3] = curve of first compound, second compound 0.316 µM
# [4] = curve of first compound, second compound 1 µM
# [5] = curve of first compound, second compound 3.16 µM
# [6] = curve of first compound, second compound 10 µM
# [7] = second compound 0.0316 µM, first compound 0.00316 µM
# [8] = second compound 0.0316 µM, first compound 0.01 µM
# [9] = second compound 0.0316 µM, first compound 0.0316 µM
# [10] = second compound 0.0316 µM, first compound 0.1 µM
# [11] = second compound 0.1 µM, first compound 0.00316 µM
# [12] = second compound 0.1 µM, first compound 0.01 µM
# [13] = second compound 0.1 µM, first compound 0.0316 µM
# [14] = second compound 0.1 µM, first compound 0.1 µM
# [15] = second compound 0.316 µM, first compound 0.00316 µM
# [16] = second compound 0.316 µM, first compound 0.01 µM
# [17] = second compound 0.316 µM, first compound 0.0316 µM
# [18] = second compound 0.316 µM, first compound 0.1 µM
# [19] = second compound 1 µM, first compound 0.00316 µM
# [20] = second compound 1 µM, first compound 0.01 µM
# [21] = second compound 1 µM, first compound 0.0316 µM
# [22] = second compound 1 µM, first compound 0.1 µM
# [23] = second compound 3.16 µM, first compound 0.00316 µM
# [24] = second compound 3.16 µM, first compound 0.01 µM
# [25] = second compound 3.16 µM, first compound 0.0316 µM
# [26] = second compound 3.16 µM, first compound 0.1 µM
# [27] = second compound 10 µM, first compound 0.00316 µM
# [28] = second compound 10 µM, first compound 0.01 µM
# [29] = second compound 10 µM, first compound 0.0316 µM
# [30] = second compound 10 µM, first compound 0.1 µM
compound,measurement,setting,value
CCN1CCN(Cc2ccc(Nc3ncc(F)c(-c4cc(F)c5nc(C)n(C(C)C)c5c4)n3)nc2)CC1 + Cc1c(S(C)(=O)=O)c(-c2cc(F)cc(N3CCN(c4ccc(NS(=O)(=O)c5ccc(NC(CCN6CCC(C(=O)OCCCP(=O)(O)O)CC6)CSc6ccccc6)c(S(=O)(=O)C(F)(F)F)c5)cc4)CC3)c2)c(-c2ccc(Cl)cc2)n1C(C)C,IC50,[1],> 1000 nM
same,IC50,[2],> 1000 nM
same,IC50,[3],> 1000 nM
same,IC50,[4],> 1000 nM
same,IC50,[5],> 1000 nM
same,IC50,[6],> 1000 nM
same,"viability, T/C",[7],97.1%
same,"viability, T/C",[8],94%
same,"viability, T/C",[9],97.9%
same,"viability, T/C",[10],98.7%
same,"viability, T/C","second compound 0.0316 µM, first compound 0.316 µM",117%
same,"viability, T/C","second compound 0.0316 µM, first compound 1 µM",130%
same,"viability, T/C",[11],98.7%
same,"viability, T/C",[12],101%
same,"viability, T/C",[13],100%
same,"viability, T/C",[14],112%
same,"viability, T/C","second compound 0.1 µM, first compound 0.316 µM",121%
same,"viability, T/C","second compound 0.1 µM, first compound 1 µM",127%
same,"viability, T/C",[15],106%
same,"viability, T/C",[16],96.2%
same,"viability, T/C",[17],120%
same,"viability, T/C",[18],106%
same,"viability, T/C","second compound 0.316 µM, first compound 0.316 µM",115%
same,"viability, T/C","second compound 0.316 µM, first compound 1 µM",125%
same,"viability, T/C",[19],101%
same,"viability, T/C",[20],100%
same,"viability, T/C",[21],98.1%
same,"viability, T/C",[22],109%
same,"viability, T/C","second compound 1 µM, first compound 0.316 µM",121%
same,"viability, T/C","second compound 1 µM, first compound 1 µM",116%
same,"viability, T/C",[23],111%
same,"viability, T/C",[24],104%
same,"viability, T/C",[25],91.8%
same,"viability, T/C",[26],103%
same,"viability, T/C","second compound 3.16 µM, first compound 0.316 µM",114%
same,"viability, T/C","second compound 3.16 µM, first compound 1 µM",110%
same,"viability, T/C",[27],105%
same,"viability, T/C",[28],104%
same,"viability, T/C",[29],94.7%
same,"viability, T/C",[30],111%
same,"viability, T/C","second compound 10 µM, first compound 0.316 µM",122%
same,"viability, T/C","second compound 10 µM, first compound 1 µM",102%
NC(=O)C(=Cn1cnc(-c2cc(C(F)(F)F)cc(C(F)(F)F)c2)n1)c1cncnc1,"viability, T/C",compound 0.000949 µM,104% and 99.4% (2×)
same,"viability, T/C",compound 0.003 µM,90.3% and 91.5% and 85.9%
same,"viability, T/C",compound 0.00949 µM,93.9% and 92.5% and 90.8%
same,"viability, T/C",compound 0.03 µM,92.4% and 98.6% and 97.9%
same,"viability, T/C",compound 0.0949 µM,97.5% and 80.5% and 104%
same,"viability, T/C",compound 0.3 µM,74.8% and 77.2% and 94.8%
same,IC50,curve of compound,> 300 nM
Cn1ncnc1[C@H]1c2n[nH]c(=O)c3cc(F)cc(c23)N[C@@H]1c1ccc(F)cc1 + Cc1c(S(C)(=O)=O)c(-c2cc(F)cc(N3CCN(c4ccc(NS(=O)(=O)c5ccc(NC(CCN6CCC(C(=O)OCCCP(=O)(O)O)CC6)CSc6ccccc6)c(S(=O)(=O)C(F)(F)F)c5)cc4)CC3)c2)c(-c2ccc(Cl)cc2)n1C(C)C,IC50,[1],> 100 nM
same,IC50,[2],> 100 nM
same,IC50,[3],> 100 nM
same,IC50,[4],> 100 nM
same,IC50,[5],> 100 nM
same,IC50,[6],> 100 nM
same,"viability, T/C","second compound 0.0316 µM, first compound 0.000316 µM",89.8%
same,"viability, T/C","second compound 0.0316 µM, first compound 0.001 µM",82.8%
same,"viability, T/C",[7],101%
same,"viability, T/C",[8],94.2%
same,"viability, T/C",[9],106%
same,"viability, T/C",[10],81.6%
same,"viability, T/C","second compound 0.1 µM, first compound 0.000316 µM",100%
same,"viability, T/C","second compound 0.1 µM, first compound 0.001 µM",92.9%
same,"viability, T/C",[11],98.4%
same,"viability, T/C",[12],111%
same,"viability, T/C",[13],96.7%
same,"viability, T/C",[14],86.5%
same,"viability, T/C","second compound 0.316 µM, first compound 0.000316 µM",92%
same,"viability, T/C","second compound 0.316 µM, first compound 0.001 µM",101%
same,"viability, T/C",[15],95.5%
same,"viability, T/C",[16],110%
same,"viability, T/C",[17],94.7%
same,"viability, T/C",[18],74.3%
same,"viability, T/C","second compound 1 µM, first compound 0.000316 µM",110%
same,"viability, T/C","second compound 1 µM, first compound 0.001 µM",89.8%
same,"viability, T/C",[19],94.7%
same,"viability, T/C",[20],94.7%
same,"viability, T/C",[21],91.7%
same,"viability, T/C",[22],64%
same,"viability, T/C","second compound 3.16 µM, first compound 0.000316 µM",94.2%
same,"viability, T/C","second compound 3.16 µM, first compound 0.001 µM",95.7%
same,"viability, T/C",[23],94.1%
same,"viability, T/C",[24],92.6%
same,"viability, T/C",[25],81%
same,"viability, T/C",[26],53.7%
same,"viability, T/C","second compound 10 µM, first compound 0.000316 µM",100%
same,"viability, T/C","second compound 10 µM, first compound 0.001 µM",106%
same,"viability, T/C",[27],84.2%
same,"viability, T/C",[28],95.9%
same,"viability, T/C",[29],80.4%
same,"viability, T/C",[30],55.8%
CCN1C(C(=O)NC23CCC(C(=O)O)(CC2)CC3)C(c2cccc(Cl)c2F)C2(C(=O)Nc3cc(Cl)ccc32)C12CCCCC2 (stereo not drawn) + Cc1c(S(C)(=O)=O)c(-c2cc(F)cc(N3CCN(c4ccc(NS(=O)(=O)c5ccc(NC(CCN6CCC(C(=O)OCCCP(=O)(O)O)CC6)CSc6ccccc6)c(S(=O)(=O)C(F)(F)F)c5)cc4)CC3)c2)c(-c2ccc(Cl)cc2)n1C(C)C,IC50,[1],> 3000 nM
same,IC50,[2],> 3000 nM
same,IC50,[3],> 3000 nM
same,IC50,[4],> 3000 nM
same,IC50,[5],> 3000 nM
same,IC50,[6],2740 nM
same,"viability, T/C","second compound 0.0316 µM, first compound 0.00949 µM",97.3%
same,"viability, T/C","second compound 0.0316 µM, first compound 0.03 µM",85.5%
same,"viability, T/C","second compound 0.0316 µM, first compound 0.0949 µM",98.5%
same,"viability, T/C","second compound 0.0316 µM, first compound 0.3 µM",107%
same,"viability, T/C","second compound 0.0316 µM, first compound 0.949 µM",125%
same,"viability, T/C","second compound 0.0316 µM, first compound 3 µM",106%
same,"viability, T/C","second compound 0.1 µM, first compound 0.00949 µM",95%
same,"viability, T/C","second compound 0.1 µM, first compound 0.03 µM",105%
same,"viability, T/C","second compound 0.1 µM, first compound 0.0949 µM",99.5%
same,"viability, T/C","second compound 0.1 µM, first compound 0.3 µM",105%
same,"viability, T/C","second compound 0.1 µM, first compound 0.949 µM",124%
same,"viability, T/C","second compound 0.1 µM, first compound 3 µM",98.2%
same,"viability, T/C","second compound 0.316 µM, first compound 0.00949 µM",99%
same,"viability, T/C","second compound 0.316 µM, first compound 0.03 µM",96.4%
same,"viability, T/C","second compound 0.316 µM, first compound 0.0949 µM",107%
same,"viability, T/C","second compound 0.316 µM, first compound 0.3 µM",96.1%
same,"viability, T/C","second compound 0.316 µM, first compound 0.949 µM",116%
same,"viability, T/C","second compound 0.316 µM, first compound 3 µM",81.2%
same,"viability, T/C","second compound 1 µM, first compound 0.00949 µM",95.2%
same,"viability, T/C","second compound 1 µM, first compound 0.03 µM",91.7%
same,"viability, T/C","second compound 1 µM, first compound 0.0949 µM",104%
same,"viability, T/C","second compound 1 µM, first compound 0.3 µM",108%
same,"viability, T/C","second compound 1 µM, first compound 0.949 µM",121%
same,"viability, T/C","second compound 1 µM, first compound 3 µM",60.4%
same,"viability, T/C","second compound 3.16 µM, first compound 0.00949 µM",104%
same,"viability, T/C","second compound 3.16 µM, first compound 0.03 µM",107%
same,"viability, T/C","second compound 3.16 µM, first compound 0.0949 µM",96.6%
same,"viability, T/C","second compound 3.16 µM, first compound 0.3 µM",107%
same,"viability, T/C","second compound 3.16 µM, first compound 0.949 µM",110%
same,"viability, T/C","second compound 3.16 µM, first compound 3 µM",50.7%
same,"viability, T/C","second compound 10 µM, first compound 0.00949 µM",103%
same,"viability, T/C","second compound 10 µM, first compound 0.03 µM",99.7%
same,"viability, T/C","second compound 10 µM, first compound 0.0949 µM",94%
same,"viability, T/C","second compound 10 µM, first compound 0.3 µM",107%
same,"viability, T/C","second compound 10 µM, first compound 0.949 µM",115%
same,"viability, T/C","second compound 10 µM, first compound 3 µM",45.3%
